Laboratory results taken from patent publication US12071434B2, “Heterocyclic compound” (Takeda Pharmaceutical Company Limited, priority 2018, dated 2024).

These compounds were tested against T1, human orexin type 2 receptor (Homo sapiens, UniProt O43614) (assay: Measurement of orexin type 2 receptor agonist activity (calcium fluorescence, Fluo-4 AM, FDSS) in CHO cells forcibly expressing human OX2 receptor). Conditions: test compound 3 μM, DMSO = 0%, orexin A (human) 10 nM = 100%.
T1 construct: expressed in transfected cells
T1 sequence (O43614 1-444): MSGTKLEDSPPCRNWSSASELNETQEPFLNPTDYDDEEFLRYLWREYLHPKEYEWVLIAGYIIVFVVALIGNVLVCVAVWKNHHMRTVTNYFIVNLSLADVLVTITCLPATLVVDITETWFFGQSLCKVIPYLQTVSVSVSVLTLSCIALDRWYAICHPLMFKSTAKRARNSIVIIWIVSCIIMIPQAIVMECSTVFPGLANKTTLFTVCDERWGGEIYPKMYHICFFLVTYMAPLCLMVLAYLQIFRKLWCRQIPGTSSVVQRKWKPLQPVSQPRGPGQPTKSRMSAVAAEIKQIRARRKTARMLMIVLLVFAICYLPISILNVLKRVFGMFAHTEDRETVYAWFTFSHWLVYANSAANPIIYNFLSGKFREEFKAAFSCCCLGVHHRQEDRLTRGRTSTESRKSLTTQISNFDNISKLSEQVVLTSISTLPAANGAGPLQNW
Format: cell-based
Source text: To obtain a cell clone stably expressing human orexin type 2 receptor, human orexin type 2 receptor cDNA was inserted into pcDNA3.1(+) plasmid vector (Invitrogen), and a plasmid DNA for expression of human orexin type 2 receptor (pcDNA3.1(+)/hOX2R) was cloned. The plasmid DNA was introduced into CHO-dhfr cell by an electroporation method, and human orexin type 2 receptor expressing clone cells were obtained by limiting dilution method by using G418 drug resistance as a selection marker.
CHO cells forcibly expressing human OX2 receptor were seeded in each well of 384 well black transparent bottom plate (BD Falcon) at 7,500 cells/well, and cultured for one day in a 5% CO2 incubator at 37° C. After removal of the medium in the cell plate, assay buffer A containing a calcium indicator (HBSS (Thermo Fisher Scientific), 20 mM HEPES (Thermo Fisher Scientific), 0.1% BSA (Sigma-Aldrich), 2.5 μg/mL Fluo-4 AM (DOJINDO Chemical), 0.08% Pluronic F127 (DOJINDO Chemical), 1.25 mM probenecid (DOJINDO Chemical)) was added at 30 μL/well. The plate was stood for 30 min in a 5% CO2 incubator at 37° C., and further stood at room temperature for 30 min. A test compound prepared by diluting with assay buffer B (HBSS, 20 mM HEPES, 0.1% BSA) was added at 10 μL/well, and the fluorescence value was measured by FDSSpCELL (Hamamatsu Photonics K.K.) every one sec for 1 min, and thereafter every two sec for 1 min 40 sec. The activity (%) of the test compound was calculated assuming that variation in the fluorescence value when DMSO was added instead of the test compound was 0%, and variation in the fluorescence value when orexin A (human) (PEPTIDE INSTITUTE, INC.) was added at the final concentration of 10 nM was 100%.

Row | Compound | 0X2R agonist activity (3 μM, %) [%]
1 | CC(C)n1ccc2c(c1=O)[C@@H](Cc1cccc(-c3ccccc3)c1)[C@@H](NS(C)(=O)=O)CC2 (racemic) [Example 52, rac-N-[(7S,8R)-8-[([1,1′-biphenyl]-3-yl)methyl]-1-oxo-2-(propan-2-yl)-1,2,5,6,7,8-hexahydroisoquinolin-7-yl]methane sulfonamide] | 90
2 | Cc1ccc2n(c1=O)[C@@H](Cc1csc(-c3ccccc3)n1)[C@@H](NS(C)(=O)=O)CC2 (racemic) [Example 58, rac-N-{(3S,4S)-7-methyl-6-oxo-4-[(2-phenyl-1,3-thiazol-4-yl)methyl]-1,3,4,6-tetrahydro-2H-quinolizin-3-yl}methanesulfonamide] | 92
3 | Cc1ccc2n(c1=O)[C@@H](Cc1cccc(-c3cccc(F)c3)n1)[C@@H](NS(C)(=O)=O)CC2 (racemic) [Example 59, rac-N-[(3S,4S)-4-{[6-(3-fluorophenyl)pyridin-2-yl]methyl}-7-methyl-6-oxo-1,3,4,6-tetrahydro-2H-quinolizin-3-yl]methanesulfonamide] | 86
4 | Cc1ccc2n(c1=O)[C@@H](Cc1cccc(-c3cc(F)cc(F)c3)n1)[C@@H](NS(C)(=O)=O)CC2 (racemic) [Example 60, rac-N-[(3S,4S)-4-{[6-(3,5-difluorophenyl)pyridin-2-yl]methyl}-7-methyl-6-oxo-1,3,4,6-tetrahydro-2H-quinolizin-3-yl]methanesulfonamide] | 83
5 | CS(=O)(=O)N[C@H]1CCc2c(Cl)nc(Cl)c(=O)n2[C@H]1Cc1cccc(-c2ccccc2)c1 (racemic) [Example 61, rac-N-{(6S,7S)-6-[([1,1′-biphenyl]-3-yl)methyl]-1,3-dichloro-4-oxo-6,7,8,9-tetrahydro-4H-pyrido[1,2-a]pyrazin-7-yl}methanesulfonamide] | 51
6 | CN1CC[C@@H]2CC[C@H](NS(C)(=O)=O)[C@H](Cc3cccc(-c4ccccc4)c3)N2C1=O (racemic) [Example 62, rac-N-{(4aS,7S,8S)-8-[([1,1′-biphenyl]-3-yl)methyl]-2-methyl-1-oxooctahydro-1H-pyrido[1,2-c]pyrimidin-7-yl}methanesulfonamide] | 92
7 | COC1(C(=O)N[C@H]2CCc3ncn(C(C)C)c(=O)c3[C@H]2Cc2cccc(-c3ccccc3)c2)CC1 (racemic) [Example 63, rac-N-[(5R,6S)-5-[([1,1′-biphenyl]-3-yl)methyl]-4-oxo-3-(propan-2-yl)-3,4,5,6,7,8-hexahydroquinazolin-6-yl]-1-methoxycyclopropane-1-carboxamide] | 92
8 | Cc1ccc2n(c1=O)[C@@H](Cc1csc(-c3cccc(F)c3)n1)[C@@H](NS(C)(=O)=O)CC2 (racemic) [Example 64, rac-N-[(3S,4S)-4-{[2-(3-fluorophenyl)-1,3-thiazol-4-yl]methyl}-7-methyl-6-oxo-1,3,4,6-tetrahydro-2H-quinolizin-3-yl]methanesulfonamide] | 100
9 | CC(C)n1cnc2c(c1=O)[C@@H](Cc1cccc(-c3cc(F)cc(F)c3)c1)[C@@H](NS(C)(=O)=O)CC2 (racemic) [Example 67, rac-N-[(5R,6S)-5-[(3′,5′-difluoro[1,1′-biphenyl]-3-yl)methyl]-4-oxo-3-(propan-2-yl)-3,4,5,6,7,8-hexahydroquinazolin-6-yl]methanesulfonamide] | 105
10 | Cc1nc2c(c(=O)n1C(C)C)[C@@H](Cc1cccc(-c3ccccc3)c1)[C@@H](NS(C)(=O)=O)CC2 (racemic) [Example 70, rac-N-{(5R,6S)-5-[([1,1′-biphenyl]-3-yl)methyl]-2-methyl-4-oxo-3-(propan-2-yl)-3,4,5,6,7,8-hexahydroquinazolin-6-yl}methanesulfonamide] | 97
11 | CCn1c(C)nc2c(c1=O)C(Cc1cccc(-c3ccccc3)c1)C(NS(C)(=O)=O)CC2 (racemic) [Example 71, rac-N-{(5R,6S)-5-[([1,1′-biphenyl]-3-methyl]-3-ethyl-2-methyl-4-oxo-3,4,5,6,7,8-hexahydroquinazolin-6-yl}methanesulfonamide] | 90
12 | CC(C)n1ccc2c(c1=O)[C@@H](Cc1cccc(-c3cccc(F)c3)c1)[C@@H](NS(C)(=O)=O)CC2 (racemic) [Example 74, rac-N-[(7S,8R)-8-[(3′-fluoro[1,1′-biphenyl]-3-yl)methyl]-1-oxo-2-(propan-2-yl)-1,2,5,6,7,8-hexahydroisoquinolin-7-yl]methanesulfonamide] | 91
13 | CCn1c(C)nc2c(c1=O)C(Cc1cccc(-c3cc(F)cc(F)c3)c1)C(NS(C)(=O)=O)CC2 (racemic) [Example 75] | 92
14 | CCn1c(C)nc2c(c1=O)[C@@H](Cc1cccc(-c3cccc(C)c3)c1)[C@@H](NS(C)(=O)=O)CC2 (racemic) [Example 78, rac-N-{(5R,6S)-3-ethyl-2-methyl-5-[(3′-methyl[1,1′-biphenyl]-3-yl)methyl]-4-oxo-3,4,5,6,7,8-hexahydroquinazolin-6-yl}methanesulfonamide] | 100

The next lines start with the values.

Row | 0X2R agonist activity (3 μM, %) [%] | Compound
15 | 102 | CCn1ccc2c(c1=O)[C@@H](Cc1cccc(-c3cccc(F)c3)c1)[C@@H](NS(C)(=O)=O)CC2 (racemic) [Example 79, rac-N-{(7S,8R)-2-ethyl-8-[(3′-fluoro[1,1′-biphenyl]-3-yl)methyl]-1-oxo-1,2,5,6,7,8-hexahydroisoquinolin-7-yl}methanesulfonamide]
16 | 93 | CCS(=O)(=O)N[C@H]1CCc2ncn(C(C)C)c(=O)c2[C@H]1Cc1cccc(-c2ccccc2)c1 (racemic) [Example 80, rac-N-[(5R,6S)-5-[([1,1′-biphenyl]-3-yl)methyl]-4-oxo-3-(propan-2-yl)-3,4,5,6,7,8-hexahydroquinazolin-6-yl]ethanesulfonamide]
17 | 96 | CCS(=O)(=O)N[C@H]1CCc2ncn(C(C)C)c(=O)c2[C@H]1Cc1cccc(-c2cccc(F)c2)c1 (racemic) [Example 81, rac-N-[(5R,6S)-5-[(3′-fluoro[1,1′-biphenyl]-3-yl)methyl]-4-oxo-3-(propan-2-yl)-3,4,5,6,7,8-hexahydroquinazolin-6-yl]ethanesulfonamide]
18 | 100 | CCS(=O)(=O)N[C@H]1CCc2ncn(C(C)C)c(=O)c2[C@H]1Cc1cccc(-c2cccc(C)c2F)c1 (racemic) [Example 83, rac-N-[(5R,6S)-5-[(2′-fluoro-3′-methyl[1,1′-biphenyl]-3-yl)methyl]-4-oxo-3-(propan-2-yl)-3,4,5,6,7,8-hexahydroquinazolin-6-yl]ethanesulfonamide]
19 | 98 | CCS(=O)(=O)N[C@H]1CCc2ncn(C(C)C)c(=O)c2[C@H]1Cc1cccc(-c2cccc(F)c2F)c1 (racemic) [Example 85, rac-N-[(5R,6S)-5-[(2′,3′-difluoro[1,1′-biphenyl]-3-yl)methyl]-4-oxo-3-(propan-2-yl)-3,4,5,6,7,8-hexahydroquinazolin-6-yl]ethanesulfonamide]
20 | 97 | CCn1ccc2c(c1=O)[C@@H](Cc1cccc(-c3ccccc3)c1F)[C@@H](NS(C)(=O)=O)CC2 (racemic) [Example 87, rac-N-{(7S,8R)-2-ethyl-8-[(2-fluoro[1,1′-biphenyl]-3-yl)methyl]-1-oxo-1,2,5,6,7,8-hexahydroisoquinolin-7-yl}methanesulfonamide]
21 | 101 | CCn1ccc2c(c1=O)[C@@H](Cc1cccc(-c3cccc(C)c3)c1F)[C@@H](NS(C)(=O)=O)CC2 (racemic) [Example 93, rac-N-{(7S,8R)-2-ethyl-8-[(2-fluoro-3′-methyl[1,1′-biphenyl]-3-yl)methyl]-1-oxo-1,2,5,6,7,8-hexahydroisoquinolin-7-yl}methanesulfonamide]
22 | 89 | Cc1cnc2n(c1=O)[C@@H](Cc1cccc(-c3ccccc3)c1)[C@@H](NS(C)(=O)=O)CC2 (racemic) [Example 94, rac-N-{(6S,7S)-6-[([1,1′-biphenyl]-3-yl)methyl]-3-methyl-4-oxo-6,7,8,9-tetrahydro-4H-pyrido[1,2-a]pyrimidin-7-yl}methanesulfonamide]
